The record followed here is patent US20230365541A1, “INHIBITOR OF ENHANCER OF ZESTE HOMOLOGUE 2, AND USE THEREOF” (HAISCO PHARMACEUTICALS PTE. LTD., priority 2020, published 2023).

SMILES strings stand for the structures. Where two headings read alike, the source gives them in different places.

One data set deals with SU-DHL-6 cells. The data set can be described thus: SU-DHL-6 cell proliferation test. It is filed as cell-based, human. To be noted: incubated for 14 days. Here is the method: SU-DHL-6 cells are human B-cell lymphoma cell lines purchased from ATCC and cultured under the following conditions: RPMI-1640+10% FBS+1% double antibody in a 37° C., 5% CO2 incubator. The cells were plated in a 12-well plate, with a cell concentration of 1×10^5 cells/mL. After the cells were plated, the compounds at different concentrations were added and cultured in a 37° C., 5% CO2 incubator. The cells were counted every 3-4 days (Countstar automated cell counter), centrifuged to remove the supernatant, re-diluted to 1×10^5 cells/mL and plated, and then the compounds at different concentrations were further added. After the mixture was incubated for 14 days and the cells were counted, the test was terminated, and the IC50 values were calculated by using the Origen9.2 software.

A further data set has as its target EZH2 (Homo sapiens (Human), UniProt Q15910). The data set is described as follows: Test method for EZH2 enzyme activity. In kind it is biochemical. Particulars: H3K27(21-44) and [3H]-SAM. Here is the method: The compounds were dissolved in DMSO, formulated into 10 mM solutions and serially diluted with DMSO to obtain 100-fold the final concentration. 200 nL of the solutions of the compounds was transferred to a 384-well plate (Perkin Elmer, Cat. No. 6007299) by using Echo550. EZH2 (BPS, Cat. No. 51004) was diluted with 1×assay buffer (50 mM Tris-HCl 9.0, 0.01% Tween-20, 1 mM DTT) to 2-fold the final concentration (EZH2: 3 nM). A mixed solution of H3K27(21-44) and [3H]-SAM (PerkinElmer, Lot. No. 2146246) (H3K27(21-44): 200 nM, [3H]-SAM: 100 nM) was formulated. The EZH2 diluted solution was taken and added to the 384-well plate at 10 μL/well (10 μL of 1×assay buffer was added in the control group). The plate was sealed and then incubated at room temperature for 15 minutes. 10 μL of the mixed solution of H3K27 (21-44) and [3H]-SAM was added to each well. The plate was sealed and then incubated at room temperature for 60 minutes. 50 μM of SAM (Sigma, Cat. No. A7007) was formulated at low temperature and added to the 384-well plate at 10 μL/well. The sample was taken at 25 μL/well, transferred to a flashplate and incubated at room temperature for at least 1 hour. The flashplate was washed 3 times with a plate washing liquid (dH2O+0.1% Tween-20) and read by using Microbeta. The inhibition rate was calculated in Excel according to: inhibition rate (%)=(maximum valuepositive control−detection signal value)/(maximum valuepositive control−minimum valuenegative control)*100, and IC50 values were fitted by using XL-Fit.

A short description of data set [1]: Pharmacokinetic experiment in mice (intravenous 5 mg/kg or intragastric 30 mg/kg). It is filed as in vivo. The method, then:
The administration was performed according to table 5.
The concentrations of the compounds in EDTA-K2 anticoagulant plasma were determined by the LC-MS/MS method. The linear range of the standard curve of the compounds is 2-2000 ng/mL. After subjected to precipitating proteins with acetonitrile, the samples were analyzed by LC-MS/MS. The standard curve was subjected to a regression calculation using the weighted least square method (W=1/X^2), and quantified by calculating the ratio of test compound peak area to internal standard peak area.
• (1) except to the blank sample, 400 μL of internal standard working solution (Verapamil internal standard concentration in precipitant acetonitrile is 10.0 ng/mL) was added to a 1.5 mL centrifuge tube containing 30 μL of standard curve samples and quality control samples; • 200 μL of internal standard working solution (Verapamil internal standard concentration in precipitant acetonitrile is 10.0 ng/mL) was added to a 1.5 mL centrifuge tube containing 15 μL of unknown samples; • and 400 μL of acetonitrile was added to the blank sample; • (2) the mixture was mixed evenly for about 1 min in a vortex mixer; • (3) centrifugation was carried out at 10000 rpm at 4C for 10 mi; • (4) 175 μL of the supernatant was transferred to a new 96-well polypropylene plate, and then the plate was sealed and placed in a 10° C. sample tray for injection.

Where [2] appears, read: ICR mice, IV 5 mg/kg, listed as Compound 44, Isomer 2.
The mark [3] stands for this setting: ICR mice, PO 30 mg/kg, listed as Compound 44, Isomer 2.
The mark [4] stands for this setting: ICR mice, PO 30 mg/kg, listed as Compound 53, Isomer 1.
The mark [5] stands for this setting: ICR mice, IV 5 mg/kg, listed as Compound 53, Isomer 2.
Setting [6] is: ICR mice, PO 30 mg/kg, listed as Compound 53, Isomer 2.

Chain of EZH2 (Q15910 other isoform, or with tags, fused parts or gaps isoform Q15910-2): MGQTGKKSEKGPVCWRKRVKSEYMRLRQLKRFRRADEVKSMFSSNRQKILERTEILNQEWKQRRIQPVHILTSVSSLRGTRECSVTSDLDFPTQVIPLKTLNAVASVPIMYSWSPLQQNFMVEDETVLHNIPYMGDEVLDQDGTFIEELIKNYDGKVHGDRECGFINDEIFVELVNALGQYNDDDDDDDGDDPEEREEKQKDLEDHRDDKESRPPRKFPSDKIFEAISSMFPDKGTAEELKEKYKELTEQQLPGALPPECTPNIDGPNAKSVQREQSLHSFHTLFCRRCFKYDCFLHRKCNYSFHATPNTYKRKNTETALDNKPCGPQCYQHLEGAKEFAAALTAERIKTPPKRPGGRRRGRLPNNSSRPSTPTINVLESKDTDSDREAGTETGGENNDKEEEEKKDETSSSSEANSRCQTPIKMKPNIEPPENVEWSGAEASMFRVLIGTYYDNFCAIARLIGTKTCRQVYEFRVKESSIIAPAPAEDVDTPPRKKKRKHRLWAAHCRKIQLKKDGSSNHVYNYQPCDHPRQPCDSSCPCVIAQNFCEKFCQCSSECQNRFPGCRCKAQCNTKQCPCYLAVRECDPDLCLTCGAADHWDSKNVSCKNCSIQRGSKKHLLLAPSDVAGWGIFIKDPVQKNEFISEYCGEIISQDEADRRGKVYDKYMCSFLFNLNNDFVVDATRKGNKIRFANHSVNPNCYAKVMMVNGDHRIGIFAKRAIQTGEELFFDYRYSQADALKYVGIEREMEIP
Chain of EZH2 (O75530 2-441 partner): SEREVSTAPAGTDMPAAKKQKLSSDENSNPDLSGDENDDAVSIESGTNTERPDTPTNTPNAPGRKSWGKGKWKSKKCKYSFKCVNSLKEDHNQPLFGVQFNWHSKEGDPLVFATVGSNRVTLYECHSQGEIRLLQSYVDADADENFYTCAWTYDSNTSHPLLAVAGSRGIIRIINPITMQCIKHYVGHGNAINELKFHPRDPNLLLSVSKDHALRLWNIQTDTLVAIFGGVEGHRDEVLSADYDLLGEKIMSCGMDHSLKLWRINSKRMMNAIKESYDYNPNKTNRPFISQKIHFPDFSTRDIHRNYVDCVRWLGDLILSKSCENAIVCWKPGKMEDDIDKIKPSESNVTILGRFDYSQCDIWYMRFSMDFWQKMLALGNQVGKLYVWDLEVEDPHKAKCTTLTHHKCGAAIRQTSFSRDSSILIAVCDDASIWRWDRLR
Chain of EZH2 (Q15022 2-739 partner): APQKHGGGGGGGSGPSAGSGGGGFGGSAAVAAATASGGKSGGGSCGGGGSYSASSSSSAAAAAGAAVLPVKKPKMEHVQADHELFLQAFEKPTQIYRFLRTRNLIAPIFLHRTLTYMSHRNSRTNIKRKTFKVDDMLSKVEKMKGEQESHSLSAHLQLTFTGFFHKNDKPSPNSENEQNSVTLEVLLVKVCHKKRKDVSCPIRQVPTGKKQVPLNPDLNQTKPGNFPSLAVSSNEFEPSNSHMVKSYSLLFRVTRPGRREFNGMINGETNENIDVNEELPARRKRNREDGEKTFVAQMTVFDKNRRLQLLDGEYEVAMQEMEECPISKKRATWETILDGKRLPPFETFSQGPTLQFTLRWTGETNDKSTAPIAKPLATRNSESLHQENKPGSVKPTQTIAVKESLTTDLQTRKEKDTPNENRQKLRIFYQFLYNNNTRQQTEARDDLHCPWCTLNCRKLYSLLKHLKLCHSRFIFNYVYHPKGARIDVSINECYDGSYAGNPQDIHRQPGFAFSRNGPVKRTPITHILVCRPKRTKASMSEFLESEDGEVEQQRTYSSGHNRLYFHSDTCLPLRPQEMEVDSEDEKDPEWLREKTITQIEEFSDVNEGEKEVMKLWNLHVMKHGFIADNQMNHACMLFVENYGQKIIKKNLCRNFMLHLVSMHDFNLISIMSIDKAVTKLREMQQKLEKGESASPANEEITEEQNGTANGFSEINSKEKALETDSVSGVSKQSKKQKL
Chain of EZH2 (Q09028 2-425 partner): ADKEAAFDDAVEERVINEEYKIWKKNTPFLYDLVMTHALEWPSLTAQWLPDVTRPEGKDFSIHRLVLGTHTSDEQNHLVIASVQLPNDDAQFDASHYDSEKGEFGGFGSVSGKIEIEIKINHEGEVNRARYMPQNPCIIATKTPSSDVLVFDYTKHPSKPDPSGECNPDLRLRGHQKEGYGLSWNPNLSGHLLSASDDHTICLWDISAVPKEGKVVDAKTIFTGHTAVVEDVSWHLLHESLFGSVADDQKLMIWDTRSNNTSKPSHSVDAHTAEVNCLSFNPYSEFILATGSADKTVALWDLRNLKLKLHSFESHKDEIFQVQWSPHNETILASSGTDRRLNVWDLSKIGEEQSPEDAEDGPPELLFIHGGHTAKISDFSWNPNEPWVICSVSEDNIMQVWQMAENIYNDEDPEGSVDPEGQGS
Chain of EZH2 (Q6ZN18 whole entry partner): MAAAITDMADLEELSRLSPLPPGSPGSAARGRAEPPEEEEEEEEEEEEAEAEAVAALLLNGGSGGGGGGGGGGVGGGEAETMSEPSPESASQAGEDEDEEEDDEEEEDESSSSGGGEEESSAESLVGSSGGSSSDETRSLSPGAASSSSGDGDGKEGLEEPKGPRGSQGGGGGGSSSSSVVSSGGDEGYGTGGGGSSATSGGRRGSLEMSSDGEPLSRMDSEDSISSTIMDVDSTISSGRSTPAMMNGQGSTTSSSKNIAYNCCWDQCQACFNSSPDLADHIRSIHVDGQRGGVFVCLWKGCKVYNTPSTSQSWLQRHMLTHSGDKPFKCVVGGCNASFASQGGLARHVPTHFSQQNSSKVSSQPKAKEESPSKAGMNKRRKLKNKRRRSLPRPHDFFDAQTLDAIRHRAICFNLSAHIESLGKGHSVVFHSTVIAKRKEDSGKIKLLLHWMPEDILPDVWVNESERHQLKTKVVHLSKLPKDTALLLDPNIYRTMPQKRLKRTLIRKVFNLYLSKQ

The term IC50 denotes the concentration that inhibits the measured activity by half. A low value points to higher potency. Turning to `CNC(=O)N1CC2CCC(C1)C2[C@]1(C)Oc2c(Cl)cc(C(=O)NCc3c(SC)cc(C)[nH]c3=O)c(C)c2O1` (mixture of isomers) [Compound 36, 8-(7-chloro-2,4-dimethyl-5-(((6-methyl-4-(methylthio)-2-oxo-1,2-dihydropyridin-3-yl)methyl)carbamoyl)benzo[d][1,3]dioxol-2-yl)-N-methyl-3-azabicyclo[3.2.1]octane-3-carboxamide], the IC50 in the data set with SU-DHL-6 cells (Homo sapiens, SU-DHL-6, 336 h) amounted to 8.96 nM; against EZH2, 0.55 nM.

Consider `CSc1cc(C)[nH]c(=O)c1CNC(=O)c1cc(Cl)c2c(c1C)OC(C)(C1CCC(N3CC(N(C)C)C3)CC1)O2` (single isomer, unassigned) [Compound 1, isomer 1, 7-chloro-2-(4-(3-(dimethylamino)azetidin-1-yl)cyclohexyl)-2,4-dimethyl-N-((6-methyl-4-(methylthio)-2-oxo-1,2-dihydropyridin-3-yl)methyl)benzo[d][1,3]dioxole-5-carboxamide], for which the IC50 was 13.1 nM with SU-DHL-6 cells (Homo sapiens, SU-DHL-6, 336 h) and 0.67 nM on EZH2.

For the compound `CSc1cc(C)[nH]c(=O)c1CNC(=O)c1cc(Cl)c2c(c1C)OC(C)([C@H]1CC[C@@H](NC3CC(F)(F)C3)CC1)O2` (single isomer, unassigned) [Compound 4, isomer 1, 7-chloro-2-(4-((3,3-difluorocyclobutyl)amino)cyclohexyl)-2,4-dimethyl-N-((6-methyl-4-(methylthio)-2-oxo-1,2-dihydropyridin-3-yl)methyl)benzo[d][1,3]dioxole-5-carboxamide], the IC50 in the data set on SU-DHL-6 cells (Homo sapiens, SU-DHL-6, 336 h) was 10.2 nM; against EZH2 it was 0.46 nM.

As for `CSc1cc(C)[nH]c(=O)c1CNC(=O)c1cc(Cl)c2c(c1C)OC(C)([C@H]1CC[C@@H](NC3CC(F)(F)C3)CC1)O2` (single isomer, unassigned) [Compound 4, isomer 2, 7-chloro-2-(4-((3,3-difluorocyclobutyl)amino)cyclohexyl)-2,4-dimethyl-N-((6-methyl-4-(methylthio)-2-oxo-1,2-dihydropyridin-3-yl)methyl)benzo[d][1,3]dioxole-5-carboxamide], the IC50 in the data set on SU-DHL-6 cells came out at 9.79 nM; against EZH2, 0.56 nM.

With `CSc1cc(C)[nH]c(=O)c1CNC(=O)c1cc(Cl)c2c(c1C)OC(C)([C@H]1CC[C@@H](N[C@H]3C[C@H](F)C3)CC1)O2` (single isomer, unassigned) [Compound 34, isomer 2, 7-chloro-2-(4-((trans-3-fluorocyclobutyl)amino)cyclohexyl)-2,4-dimethyl-N-((6-methyl-4-(methylthio)-2-oxo-1,2-dihydropyridin-3-yl)methyl)benzo[d][1,3]dioxole-5-carboxamide], the figures for the IC50 in the data set with SU-DHL-6 cells and against EZH2 were 27.1 nM and 0.57 nM, respectively.

For `CSc1cc(C)[nH]c(=O)c1CNC(=O)c1cc(Cl)c2c(c1C)OC(C)([C@H]1CC[C@@H](c3ccccn3)CC1)O2` (single isomer, unassigned) [Compound 39, isomer 1, 7-chloro-2,4-dimethyl-N-((6-methyl-4-(methylthio)-2-oxo-1,2-dihydropyridin-3-yl)methyl)-2-(4-(pyridin-2-yl)cyclohexyl)benzo[d][1,3]dioxole-5-carboxamide], the IC50 in the data set with SU-DHL-6 cells is 28.2 nM; against EZH2 it was 0.42 nM.

With `CSc1cc(C)[nH]c(=O)c1CNC(=O)c1cc(Cl)c2c(c1C)OC(C)([C@H]1CC[C@@H](c3ccccn3)CC1)O2` (single isomer, unassigned) [Compound 39, isomer 2, 7-chloro-2,4-dimethyl-N-((6-methyl-4-(methylthio)-2-oxo-1,2-dihydropyridin-3-yl)methyl)-2-(4-(pyridin-2-yl)cyclohexyl)benzo[d][1,3]dioxole-5-carboxamide], the IC50 in the data set with SU-DHL-6 cells came out at 63.2 nM; on EZH2 it was 0.58 nM.

Usually AUC stands for the area under the concentration-time curve, a measure of exposure. For orientation: Cmax means the maximum level reached in the sampled fluid or tissue. What is called Tmax is the time from dosing to the highest level. `[2H]C([2H])(NC(=O)c1cc(Cl)c2c(c1C)OC(C)([C@H]1CC[C@@H](NC3CC(F)(F)C3)CC1)O2)c1c(SC)cc(C)[nH]c1=O` (single isomer, unassigned) [Compound 44, isomer 2, 7-chloro-2-(4-((3,3-difluorocyclobutyl)amino)cyclohexyl)-2,4-dimethyl-N-((6-methyl-4-(methylthio)-2-oxo-1,2-dihydropyridin-3-yl)methyl-d2)benzo[d][1,3]dioxole-5-carboxamide]: half-maximal inhibition at EZH2 (IC50) was put at 0.51 nM. In data set [1] (setting [2]), this compound came in with an AUC of 713 ng·h/mL, a C0 of 2482 ng/mL and a T1/2 of 2.33 h. The F % in data set [1] (ICR mice, PO 30 mg/kg vs IV 5 mg/kg, listed as Compound 44, Isomer 2) came to 27.4%. In data set [1] (setting [3]), this compound had an AUC of 917 ng·h/mL, a Cmax of 463 ng/mL and a T1/2 of 1.81 h. In addition, the Tmax in data set [1] (male, ICR, mouse, plasma, po, 30 mg/kg, PO 30 mg/kg, read-out: Tmax) is 1 h.

One may read the half-life as the time in which the quantity being followed falls by half. Higher therefore signals slow decline. As usually defined, the bioavailability is dose-corrected exposure relative to a reference, in per cent. The low end stands for poor availability, the high end for good availability. Regarding `[2H]C([2H])(NC(=O)c1cc(Cl)c2c(c1C)OC(C)(C1CCC(N[C@H]3C[C@H](F)C3)CC1)O2)c1c(SC)cc(C)[nH]c1=O` (single isomer, unassigned) [Compound 53, isomer 1, 7-chloro-2-(4-((trans-3-fluorocyclobutyl)amino)cyclohexyl)-2,4-dimethyl-N-((6-methyl-4-(methylthio)-2-oxo-1,2-dihydropyridin-3-yl)methyl-d2)benzo[d][1,3]dioxole-5-carboxamide], inhibition on EZH2 was half-maximal at 0.33 nM (IC50). In addition, in data set [1] (setting [4]), the Cmax came to 1025 ng/mL, the T1/2 stood at 1.10 h and the Tmax amounted to 0.500 h. In data set [1] (male, ICR, mouse, plasma, iv, 5 mg/kg, IV 5 mg/kg), this compound gave a half-life of 1.21 h. Also, the AUC in data set [1] (male, ICR, mouse, plasma, iv, 5 mg/kg, IV 5 mg/kg, read-out: AUC) was 703 ng·h/mL. Further, in data set [1] (male, ICR, mouse, plasma, iv, 5 mg/kg, IV 5 mg/kg, read-out: C0), the C0 is 2360 ng/mL. The compound further showed a bioavailability in data set [1] (male, ICR, mouse, plasma, po, 30 mg/kg, PO 30 mg/kg vs IV 5 mg/kg) of 47.9%. Also, the AUC in data set [1] (male, ICR, mouse, plasma, po, 30 mg/kg, PO 30 mg/kg, read-out: AUC) came out at 2020 ng·h/mL.

In data set [1] (setting [5]), `[2H]C([2H])(NC(=O)c1cc(Cl)c2c(c1C)OC(C)(C1CCC(N[C@H]3C[C@H](F)C3)CC1)O2)c1c(SC)cc(C)[nH]c1=O` (single isomer, unassigned) [Compound 53, isomer 2, 7-chloro-2-(4-((trans-3-fluorocyclobutyl)amino)cyclohexyl)-2,4-dimethyl-N-((6-methyl-4-(methylthio)-2-oxo-1,2-dihydropyridin-3-yl)methyl-d2)benzo[d][1,3]dioxole-5-carboxamide] had an AUC of 954 ng·h/mL, a C0 of 2665 ng/mL and a T1/2 of 1.87 h. In data set [1] (ICR mice, PO 30 mg/kg vs IV 5 mg/kg, listed as Compound 53, Isomer 2), this compound returned a F % of 38.4%. Also, in data set [1] (setting [6]), the AUC came out at 2201 ng·h/mL, the Cmax turned out to be 476 ng/mL, the T1/2 is 4.51 h and the time of peak concentration (Tmax) was 4.00 h.

Turning to `CSc1cc(C)[nH]c(=O)c1CNC(=O)c1cc(Cl)c2c(c1C)OC(C)(C1CCC(N(C)C3CC(F)(F)C3)CC1)O2` (centres unmarked) [Compound 35, 7-chloro-2-(4-((3,3-difluorocyclobutyl)(methyl)amino)cyclohexyl)-2,4-dimethyl-N-((6-methyl-4-(methylthio)-2-oxo-1,2-dihydropyridin-3-yl)methyl)benzo[d][1,3]dioxole-5-carboxamide], the IC50 on EZH2 was found to be 0.59 nM.
